Data published in BigSolDB 2.1.

Q: For `Cl.c1ccc2c(CC3=NCCN3)cccc2c1`, which solubility (mole fraction) (in 2-methoxyethanol, 278.15 K) is on record?
A: The solubility (mole fraction) was 0.0132.

Q: And the solubility (mole fraction) (in 2-methoxyethanol, 283.15 K)?
A: Its solubility (mole fraction) is 0.0157.

Q: What about the solubility (mole fraction) (in 2-methoxyethanol, 288.15 K) of the same compound?
A: The solubility (mole fraction) was 0.0184.

Q: And the solubility (mole fraction) (in 2-methoxyethanol, 293.15 K)?
A: The solubility (mole fraction) was 0.0214.

Q: And the solubility (mole fraction) (in 2-methoxyethanol, 298.15 K)?
A: The solubility (mole fraction) was 0.0246.

Q: What about the solubility (mole fraction) (in 2-methoxyethanol, 303.15 K) of the same compound?
A: Its solubility (mole fraction) is 0.0287.

Q: What about the solubility (mole fraction) (in 2-methoxyethanol, 308.15 K) of the same compound?
A: Its solubility (mole fraction) is 0.0329.

Q: And the solubility (mole fraction) (in 2-methoxyethanol, 313.15 K)?
A: Its solubility (mole fraction) is 0.0366.

Q: What about the solubility (mole fraction) (in 2-methoxyethanol, 318.15 K) of the same compound?
A: Its solubility (mole fraction) is 0.0419.

Q: What about the solubility (mole fraction) (in 2-methoxyethanol, 323.15 K) of the same compound?
A: Its solubility (mole fraction) is 0.0476.

Q: And the solubility (mole fraction) (in ethanol, 278.15 K)?
A: Its solubility (mole fraction) is 0.00313.

Q: And the solubility (mole fraction) (in ethanol, 283.15 K)?
A: Its solubility (mole fraction) is 0.00386.

Q: What about the solubility (mole fraction) (in ethanol, 288.15 K) of the same compound?
A: The solubility (mole fraction) was 0.00457.

Q: And the solubility (mole fraction) (in ethanol, 293.15 K)?
A: Its solubility (mole fraction) is 0.00545.

Q: And the solubility (mole fraction) (in ethanol, 298.15 K)?
A: The solubility (mole fraction) was 0.00639.

Q: What about the solubility (mole fraction) (in ethanol, 303.15 K) of the same compound?
A: Its solubility (mole fraction) is 0.0076.

Q: What about the solubility (mole fraction) (in ethanol, 308.15 K) of the same compound?
A: The solubility (mole fraction) was 0.00893.

Q: What about the solubility (mole fraction) (in ethanol, 313.15 K) of the same compound?
A: Its solubility (mole fraction) is 0.0104.

Q: What about the solubility (mole fraction) (in ethanol, 318.15 K) of the same compound?
A: Its solubility (mole fraction) is 0.012.

Q: What about the solubility (mole fraction) (in ethanol, 323.15 K) of the same compound?
A: Its solubility (mole fraction) is 0.014.

Q: What about the solubility (mole fraction) (in isopropanol, 278.15 K) of the same compound?
A: The solubility (mole fraction) was 0.000605.

Q: What about the solubility (mole fraction) (in isopropanol, 283.15 K) of the same compound?
A: Its solubility (mole fraction) is 0.000784.

Q: And the solubility (mole fraction) (in isopropanol, 288.15 K)?
A: The solubility (mole fraction) was 0.00101.

Q: What about the solubility (mole fraction) (in isopropanol, 293.15 K) of the same compound?
A: Its solubility (mole fraction) is 0.0013.

Q: What about the solubility (mole fraction) (in isopropanol, 298.15 K) of the same compound?
A: The solubility (mole fraction) was 0.00169.

Q: And the solubility (mole fraction) (in isopropanol, 303.15 K)?
A: Its solubility (mole fraction) is 0.00202.

Q: And the solubility (mole fraction) (in isopropanol, 308.15 K)?
A: The solubility (mole fraction) was 0.00249.

Q: And the solubility (mole fraction) (in isopropanol, 313.15 K)?
A: The solubility (mole fraction) was 0.00309.

Q: What about the solubility (mole fraction) (in isopropanol, 318.15 K) of the same compound?
A: The solubility (mole fraction) was 0.00377.

Q: And the solubility (mole fraction) (in isopropanol, 323.15 K)?
A: Its solubility (mole fraction) is 0.00462.

Q: And the solubility (mole fraction) (in methanol, 278.15 K)?
A: Its solubility (mole fraction) is 0.011.

Q: What about the solubility (mole fraction) (in methanol, 283.15 K) of the same compound?
A: Its solubility (mole fraction) is 0.0137.

Q: What about the solubility (mole fraction) (in methanol, 288.15 K) of the same compound?
A: Its solubility (mole fraction) is 0.0164.

Q: What about the solubility (mole fraction) (in methanol, 293.15 K) of the same compound?
A: The solubility (mole fraction) was 0.0198.

Q: What about the solubility (mole fraction) (in methanol, 298.15 K) of the same compound?
A: Its solubility (mole fraction) is 0.0243.

Q: What about the solubility (mole fraction) (in methanol, 303.15 K) of the same compound?
A: Its solubility (mole fraction) is 0.0287.

Q: What about the solubility (mole fraction) (in methanol, 308.15 K) of the same compound?
A: Its solubility (mole fraction) is 0.0337.

Q: And the solubility (mole fraction) (in methanol, 313.15 K)?
A: The solubility (mole fraction) was 0.04.

Q: What about the solubility (mole fraction) (in methanol, 318.15 K) of the same compound?
A: The solubility (mole fraction) was 0.0462.

Q: What about the solubility (mole fraction) (in methanol, 323.15 K) of the same compound?
A: Its solubility (mole fraction) is 0.0527.
